# Active and inactive are the calls of the source. No cut-off for these calls is given here.
# Molecular target: T1, Tyrosine-protein phosphatase non-receptor type 1 (Homo sapiens, UniProt P18031)
# T1 sequence (P18031 whole entry): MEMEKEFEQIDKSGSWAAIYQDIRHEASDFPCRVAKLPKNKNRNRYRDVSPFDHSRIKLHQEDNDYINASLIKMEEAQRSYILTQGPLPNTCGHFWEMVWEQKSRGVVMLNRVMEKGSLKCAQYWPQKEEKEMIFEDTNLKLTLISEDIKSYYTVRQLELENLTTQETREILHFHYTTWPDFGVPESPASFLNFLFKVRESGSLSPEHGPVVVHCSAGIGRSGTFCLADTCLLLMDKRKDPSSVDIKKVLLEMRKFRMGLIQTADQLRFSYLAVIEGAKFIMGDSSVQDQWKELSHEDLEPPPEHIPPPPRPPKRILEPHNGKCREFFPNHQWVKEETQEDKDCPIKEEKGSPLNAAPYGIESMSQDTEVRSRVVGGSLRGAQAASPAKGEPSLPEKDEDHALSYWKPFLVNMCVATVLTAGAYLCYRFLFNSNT
# Test: Inhibition of human recombinant PTP1B (1 to 322 residues) expressed in Escherichia coli using pNPP as substrate preincubated for 10 mins followed by substrate addition and measured after every 30 secs for 10 mins by photometric method
row,SMILES,IC50 [µM]
1,CCCCCCCCCCCCCCCC(=O)C1=C(O)[C@@H](CO)OC1=O,7.3
2,CCCCCCC[C@H]1[C@H](/C(=C/C=C/C(=O)O)COC(C)=O)[C@@H](/C=C/C(=O)O)C(COC(C)=O)=C[C@H]1CCCCCCC,12
3,CCCCCCC[C@@H]1[C@@H](/C(=C/C=C/C(=O)O)COC(C)=O)[C@@H](/C=C/C(=O)O)C(CO)=C[C@H]1CCCCCCC,24
4,CCCCCCC/C=C/C(=C/[C@H]1[C@H](C(=O)O)[C@H](CCCCCCC)C=C(COC(C)=O)[C@@H]1/C=C/C(=O)O)COC(=O)O,66
5,CCCCCCC[C@@H]1[C@@H](/C(=C/C=C/C(=O)O)COC(C)=O)[C@@H](/C=C/C(=O)O)C(COC(C)=O)=C[C@H]1CCCCCCC,12

# Second part, the compound after the results:
row,IC50 [µM],SMILES
1,144,C=C(/C=C/CCCCCCC)CCCC(=O)O
2,484,CCCCCCC/C=C/C(=C/C=C/C(=O)O)COC(C)=O
3,2.4,CCCCCCC[C@H]1[C@H](/C(=C/C=C/C(=O)O)CO)[C@@H](/C=C/C(=O)O)C(COC(C)=O)=C[C@H]1CCCCCCC
4,30,CCCCCCC[C@@H]1[C@@H](/C(=C/C=C/C(=O)O)CO)[C@@H](/C=C/C(=O)O)C(COC(C)=O)=C[C@H]1CCCCCCC
5,163,CCCCCCC/C=C/C(=C/C=C/C(=O)O)CO
6,38,CCCCCCC/C=C/C(=C\C=C\C(=O)O)COC(C)=O
7,73,CCCCCCC/C=C/C(C)=C/C=C/C(=O)O

# Molecular target: T2, Tyrosine-protein phosphatase non-receptor type 1 (Homo sapiens) (UniProt P18031)
# T2 sequence (whole entry): T1 sequence (P18031 whole entry)
# Test: Inhibition of human recombinant PTP1B (1 to 322 residues) expressed in Escherichia coli by HPLC-PDA-HRMS-SPE-NMR analysis
row,SMILES,inhibition
1,CCCCCCC[C@H]1[C@H](/C(=C/C=C/C(=O)O)COC(C)=O)[C@@H](/C=C/C(=O)O)C(COC(C)=O)=C[C@H]1CCCCCCC,Active
2,CCCCCCC[C@@H]1[C@@H](/C(=C/C=C/C(=O)O)COC(C)=O)[C@@H](/C=C/C(=O)O)C(CO)=C[C@H]1CCCCCCC,Active
3,CCCCCCC/C=C/C(=C/[C@H]1[C@H](C(=O)O)[C@H](CCCCCCC)C=C(COC(C)=O)[C@@H]1/C=C/C(=O)O)COC(=O)O,Active
4,CCCCCCC[C@@H]1[C@@H](/C(=C/C=C/C(=O)O)COC(C)=O)[C@@H](/C=C/C(=O)O)C(COC(C)=O)=C[C@H]1CCCCCCC,Active

# Results, then the compound that gave them:
row,inhibition,SMILES
1,Active,CCCCCCC[C@H]1[C@H](/C(=C/C=C/C(=O)O)CO)[C@@H](/C=C/C(=O)O)C(COC(C)=O)=C[C@H]1CCCCCCC
2,Active,CCCCCCC[C@@H]1[C@@H](/C(=C/C=C/C(=O)O)CO)[C@@H](/C=C/C(=O)O)C(COC(C)=O)=C[C@H]1CCCCCCC

# Molecular target: T1, Tyrosine-protein phosphatase non-receptor type 1
# Test: Inhibition of PTP1B (unknown origin) using pNPP as substrate incubated for 30 mins by photometric method
row,SMILES,IC50 [µM]
1,CCCCCCCCCCCCCCCCCC(=O)O [STEARIC ACID],2.3
2,CCCCCCCCCCCCCCCC(=O)O [PALMITIC ACID],8.8
3,CCCCCCCCCCCCCCCCCCCC(=O)O [ARACHIDIC ACID],1.6

# The next lines start with the values.
row,IC50 [µM],SMILES
1,6.2,CCCCCCCC/C=C\CCCCCCCC(=O)O [OLEIC ACID]
2,1.4,CCCCCCCC/C=C\CCCCCCCCCC(=O)O
3,6.4,CCCCCC/C=C\CCCCCCCC(=O)O [PALMITOLEIC ACID]

# — ChEMBL document CHEMBL4616647, “PTP1B-Inhibiting Branched-Chain Fatty Acid Dimers from Eremophila oppositifolia subsp. angustifolia Identified by High-Resolution PTP1B Inhibition Profiling and HPLC-PDA-HRMS-SPE-NMR Analysis” (J Nat Prod, 2020)
